Active and inactive are the calls of the source.
Key:
Escherichia coli = experiment: microbe, parasite or virus in culture
[1] = biological target: Delta-type opioid receptor (Homo sapiens, UniProt P41143); experiment: Counterscreen for agonists of heterodimerization of the mu 1 (OPRM1) and delta 1 (OPRD1) opioid receptors: Luminescence-based cell-based high throughput dose response assay to identify agonists of OPRD1 homodimerization. [Related pubchem assays (depositor defined):AID504326, AID504355, AID504692, AID504904, AID504905]; type: functional
[2] = biological target: T1, Short transient receptor potential channel 4 (Mus musculus, UniProt Q9QUQ5); experiment: calcium entry via TRPC4 opening agents – cell-based, HEK293 TRPC4/mu-opioid, Fluo-4 calcium, dose response (AID 434937); type: functional
T1 sequence (Q9QUQ5 whole entry): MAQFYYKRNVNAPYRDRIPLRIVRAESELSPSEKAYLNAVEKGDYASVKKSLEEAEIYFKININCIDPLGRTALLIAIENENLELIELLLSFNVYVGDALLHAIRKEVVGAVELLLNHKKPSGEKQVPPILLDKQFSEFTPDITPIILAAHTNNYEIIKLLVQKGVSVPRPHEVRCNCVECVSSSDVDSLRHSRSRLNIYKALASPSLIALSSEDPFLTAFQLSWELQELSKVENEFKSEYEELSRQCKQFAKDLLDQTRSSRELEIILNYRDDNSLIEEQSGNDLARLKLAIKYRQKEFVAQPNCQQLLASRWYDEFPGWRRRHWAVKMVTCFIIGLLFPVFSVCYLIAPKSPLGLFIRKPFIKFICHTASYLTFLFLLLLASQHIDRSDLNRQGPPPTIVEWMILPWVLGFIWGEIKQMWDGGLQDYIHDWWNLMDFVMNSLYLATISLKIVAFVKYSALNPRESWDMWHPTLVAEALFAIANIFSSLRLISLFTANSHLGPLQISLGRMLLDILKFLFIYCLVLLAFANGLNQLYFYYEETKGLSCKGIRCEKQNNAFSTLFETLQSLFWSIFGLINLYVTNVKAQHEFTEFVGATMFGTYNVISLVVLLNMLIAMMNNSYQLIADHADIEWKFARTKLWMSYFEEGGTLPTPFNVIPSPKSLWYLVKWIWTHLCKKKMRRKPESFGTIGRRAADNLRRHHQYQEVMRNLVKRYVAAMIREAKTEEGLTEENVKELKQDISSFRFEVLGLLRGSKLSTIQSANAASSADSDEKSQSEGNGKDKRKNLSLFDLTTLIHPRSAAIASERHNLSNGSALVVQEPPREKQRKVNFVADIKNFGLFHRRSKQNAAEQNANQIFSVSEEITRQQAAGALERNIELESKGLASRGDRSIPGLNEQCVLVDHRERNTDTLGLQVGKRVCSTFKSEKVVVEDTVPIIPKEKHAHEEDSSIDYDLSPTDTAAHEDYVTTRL

Mu-type opioid receptor = Mu-type opioid receptor (Homo sapiens, UniProt P35372); experiment: Counterscreen for agonists of heterodimerization of the mu 1 (OPRM1) and delta 1 (OPRD1) opioid receptors: Luminescence-based cell-based high throughput dose response assay to identify agonists of OPRM1 homodimerization.; type: functional;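 further: U2OS cells expressing OPRM1 and beta-arrestin as split beta-galactosidase partners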
[3] = biological target: 5-hydroxytryptamine receptor 5A (Homo sapiens, UniProt P47898); experiment: Counterscreen for agonists of OPRM1-OPRD1 heterodimerization: luminescence-based cell-based high throughput dose response assay to identify agonists of 5-hydroxytryptamine (serotonin) 5A receptor (HTR5A). [Related pubchem assays (depositor defined):AID504326, AID504355, AID504692, AID504904, AID504905]; type: functional
[4] = biological target: T1, Short transient receptor potential channel 4; experiment: block of DAMGO-driven TRPC4 calcium entry – cell-based, HEK293 TRPC4/mu-opioid, Fluo-4 calcium, dose response (AID 434942); type: functional;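 further: potency of inhibitors blocking the TRPC4 calcium response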
[5] = biological target: T2, High affinity choline transporter 1 (Homo sapiens, UniProt Q9GZV3); experiment: human choline transporter blockers, potency – cell-based, 5-point CRC, membrane potential dye, dose response (AID 504840); type: functional
T2 sequence (Q9GZV3 whole entry): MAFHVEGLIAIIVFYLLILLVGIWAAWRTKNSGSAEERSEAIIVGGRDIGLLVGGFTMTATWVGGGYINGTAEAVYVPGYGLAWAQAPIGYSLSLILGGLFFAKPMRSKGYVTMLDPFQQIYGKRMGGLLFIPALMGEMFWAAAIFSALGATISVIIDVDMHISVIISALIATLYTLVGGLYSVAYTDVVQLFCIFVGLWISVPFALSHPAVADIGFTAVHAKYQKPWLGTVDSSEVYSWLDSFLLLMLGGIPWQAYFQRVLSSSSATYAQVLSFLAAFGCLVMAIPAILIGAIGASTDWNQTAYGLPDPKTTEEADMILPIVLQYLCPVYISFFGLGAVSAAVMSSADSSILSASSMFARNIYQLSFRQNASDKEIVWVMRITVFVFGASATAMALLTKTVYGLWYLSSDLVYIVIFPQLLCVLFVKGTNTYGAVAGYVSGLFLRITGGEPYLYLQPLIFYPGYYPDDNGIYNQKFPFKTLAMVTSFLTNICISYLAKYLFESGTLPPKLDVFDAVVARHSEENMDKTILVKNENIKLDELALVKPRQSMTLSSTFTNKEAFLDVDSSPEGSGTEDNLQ

Vero = experiment: cells; type: functional; conditions: Chlorocebus sabaeus
H9c2 = experiment: cells; type: functional, cell-based; conditions: Rattus norvegicus, H9c2, Myocardium;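 further: confirmatory concentration-response retest of ultra-high-throughput screening hits for modulation of myocardial damage; cell death induced by hydrogen peroxide oxidative stress; compound pretreatment for 60 min then peroxide exposure for 2 h; potency is for protecting the cells against peroxide damage rather than for killing them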
[6] = biological target: 26S proteasome non-ATPase regulatory subunit 14 (Homo sapiens, UniProt O00487); experiment: inhibition of proteasome subunit RPN11 – biochemical, fluorescence polarization, uHTS hits, confirmation (AID 602368); type: functional
[7] = biological target: 72 kDa type IV collagenase (Homo sapiens, UniProt P08253); experiment: Dose Response validation of uHTS RPN11 inhibitor hits using a MMP-2 Fluorescence assay.; type: functional
Prothrombin = Prothrombin (Bos taurus, UniProt P00735); experiment: thrombin protease inhibitors – biochemical, fluorescence polarization, uHTS hits, dose response (AID 602369); type: functional
[8] = biological target: T3, Replicative DNA helicase DnaB (Mycobacterium tuberculosis, UniProt P9WMR3); experiment: DnaB intein splicing inhibitors, dose response, biochemical, cell-free fluorescence (AID 449749); type: functional
T3 sequence (P9WMR3 whole entry): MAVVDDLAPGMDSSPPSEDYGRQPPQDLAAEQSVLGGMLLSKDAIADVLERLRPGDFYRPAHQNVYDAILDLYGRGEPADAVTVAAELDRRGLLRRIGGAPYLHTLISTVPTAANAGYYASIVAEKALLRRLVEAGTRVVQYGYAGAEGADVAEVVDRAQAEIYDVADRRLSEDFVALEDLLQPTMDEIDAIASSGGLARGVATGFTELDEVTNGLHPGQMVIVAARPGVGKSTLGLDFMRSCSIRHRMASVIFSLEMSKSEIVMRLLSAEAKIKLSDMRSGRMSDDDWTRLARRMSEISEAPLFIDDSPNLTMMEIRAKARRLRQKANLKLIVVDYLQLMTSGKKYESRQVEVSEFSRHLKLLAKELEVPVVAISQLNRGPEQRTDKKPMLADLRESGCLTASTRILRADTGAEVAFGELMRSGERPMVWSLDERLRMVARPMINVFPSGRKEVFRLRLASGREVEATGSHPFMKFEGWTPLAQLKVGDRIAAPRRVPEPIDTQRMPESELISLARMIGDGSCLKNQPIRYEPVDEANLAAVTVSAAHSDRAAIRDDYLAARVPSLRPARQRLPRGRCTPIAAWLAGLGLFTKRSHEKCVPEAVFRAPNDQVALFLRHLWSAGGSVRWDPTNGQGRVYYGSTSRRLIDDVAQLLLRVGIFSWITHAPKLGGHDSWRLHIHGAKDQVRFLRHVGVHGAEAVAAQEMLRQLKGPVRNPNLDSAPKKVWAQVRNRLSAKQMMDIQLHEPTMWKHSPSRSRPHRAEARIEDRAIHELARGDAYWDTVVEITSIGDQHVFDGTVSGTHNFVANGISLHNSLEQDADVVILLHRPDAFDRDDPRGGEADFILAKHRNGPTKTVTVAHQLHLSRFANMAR

Bcl-2-related protein A1 = biological target: T4, Bcl-2-related protein A1 (Mus musculus, UniProt Q07440); type: functional;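 further: confirmatory dose–response counterscreen on Bfl-1, used to check hits from a UBC13 polyubiquitin inhibitor campaign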
T4 sequence (Q07440 whole entry): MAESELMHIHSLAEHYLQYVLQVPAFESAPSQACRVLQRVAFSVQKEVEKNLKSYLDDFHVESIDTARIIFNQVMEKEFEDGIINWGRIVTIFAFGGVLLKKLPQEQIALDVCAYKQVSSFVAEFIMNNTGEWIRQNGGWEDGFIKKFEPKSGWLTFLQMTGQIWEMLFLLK

[9] = biological target: T5, Ubiquitin-conjugating enzyme E2 N (Homo sapiens, UniProt P61088); type: functional
T5 sequence (P61088 whole entry): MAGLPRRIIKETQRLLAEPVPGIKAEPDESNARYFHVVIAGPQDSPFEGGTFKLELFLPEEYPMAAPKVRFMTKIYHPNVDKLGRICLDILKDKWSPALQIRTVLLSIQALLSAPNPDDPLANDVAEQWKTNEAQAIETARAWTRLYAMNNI

[10] = biological target: T5, Ubiquitin-conjugating enzyme E2 N; type: functional; remark: listed apart in the source
Protein RecA = biological target: T6, Protein RecA (Mycobacterium tuberculosis, UniProt P9WHJ3); experiment: Fluorescence Cell-Free Homogeneous Dose Retest to Identify Inhibitors of RecA-Intein Splicing Activity. [Related pubchem assays (depositor defined):AID2097, AID2223, AID489010, AID492950]; type: functional
T6 sequence (P9WHJ3 whole entry): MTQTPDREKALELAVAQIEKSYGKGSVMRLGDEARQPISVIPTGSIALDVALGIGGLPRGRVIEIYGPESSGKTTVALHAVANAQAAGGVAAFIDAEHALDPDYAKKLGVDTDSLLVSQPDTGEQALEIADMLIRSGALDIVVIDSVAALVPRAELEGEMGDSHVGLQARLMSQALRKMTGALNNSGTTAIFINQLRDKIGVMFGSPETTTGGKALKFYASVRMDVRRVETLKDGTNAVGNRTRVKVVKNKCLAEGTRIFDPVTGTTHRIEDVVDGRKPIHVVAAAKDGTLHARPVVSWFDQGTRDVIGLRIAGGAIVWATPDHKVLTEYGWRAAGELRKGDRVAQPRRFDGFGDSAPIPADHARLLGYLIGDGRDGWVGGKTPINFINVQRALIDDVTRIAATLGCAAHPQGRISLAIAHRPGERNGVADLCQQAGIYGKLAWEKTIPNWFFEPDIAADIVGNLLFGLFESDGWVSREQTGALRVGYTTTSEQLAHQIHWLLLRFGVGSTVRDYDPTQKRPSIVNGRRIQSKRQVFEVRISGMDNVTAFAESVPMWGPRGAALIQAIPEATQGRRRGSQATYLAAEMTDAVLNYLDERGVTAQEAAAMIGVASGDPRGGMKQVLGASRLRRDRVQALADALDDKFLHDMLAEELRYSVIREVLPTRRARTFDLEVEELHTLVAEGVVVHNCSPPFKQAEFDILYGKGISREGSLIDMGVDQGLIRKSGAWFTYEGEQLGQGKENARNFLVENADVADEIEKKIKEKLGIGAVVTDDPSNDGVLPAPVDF

Chain of 5-hydroxytryptamine receptor 5A (P47898 whole entry): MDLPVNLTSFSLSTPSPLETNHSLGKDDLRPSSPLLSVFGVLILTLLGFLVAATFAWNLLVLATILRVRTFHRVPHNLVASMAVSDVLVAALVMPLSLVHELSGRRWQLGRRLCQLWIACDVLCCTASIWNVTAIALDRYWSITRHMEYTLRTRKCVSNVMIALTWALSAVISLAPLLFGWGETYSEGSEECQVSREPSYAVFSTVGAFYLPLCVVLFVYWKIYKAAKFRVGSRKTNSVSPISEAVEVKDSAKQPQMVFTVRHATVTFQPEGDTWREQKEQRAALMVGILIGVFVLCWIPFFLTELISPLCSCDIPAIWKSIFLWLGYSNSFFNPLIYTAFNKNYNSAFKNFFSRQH
Chain of Delta-type opioid receptor (P41143 whole entry): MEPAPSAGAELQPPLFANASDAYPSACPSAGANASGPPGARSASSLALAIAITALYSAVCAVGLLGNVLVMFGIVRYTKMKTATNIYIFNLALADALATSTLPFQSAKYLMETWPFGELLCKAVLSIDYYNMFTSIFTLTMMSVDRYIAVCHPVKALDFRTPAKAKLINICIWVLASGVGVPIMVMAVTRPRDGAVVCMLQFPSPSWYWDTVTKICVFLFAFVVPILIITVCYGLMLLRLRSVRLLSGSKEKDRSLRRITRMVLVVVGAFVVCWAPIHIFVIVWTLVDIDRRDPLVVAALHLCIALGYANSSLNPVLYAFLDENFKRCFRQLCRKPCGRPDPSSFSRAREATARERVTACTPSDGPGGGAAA
Chain of Mu-type opioid receptor (P35372 whole entry): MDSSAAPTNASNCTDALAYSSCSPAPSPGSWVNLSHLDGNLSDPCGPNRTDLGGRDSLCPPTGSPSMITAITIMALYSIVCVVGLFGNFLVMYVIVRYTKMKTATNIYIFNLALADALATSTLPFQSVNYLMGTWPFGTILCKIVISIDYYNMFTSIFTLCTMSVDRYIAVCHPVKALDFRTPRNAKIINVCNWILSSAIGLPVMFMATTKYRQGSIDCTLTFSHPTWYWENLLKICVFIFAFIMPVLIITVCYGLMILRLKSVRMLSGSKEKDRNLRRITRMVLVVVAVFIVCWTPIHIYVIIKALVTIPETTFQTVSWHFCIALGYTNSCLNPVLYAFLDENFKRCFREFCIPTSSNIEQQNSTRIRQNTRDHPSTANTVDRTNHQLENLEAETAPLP
Chain of 26S proteasome non-ATPase regulatory subunit 14 (O00487 whole entry): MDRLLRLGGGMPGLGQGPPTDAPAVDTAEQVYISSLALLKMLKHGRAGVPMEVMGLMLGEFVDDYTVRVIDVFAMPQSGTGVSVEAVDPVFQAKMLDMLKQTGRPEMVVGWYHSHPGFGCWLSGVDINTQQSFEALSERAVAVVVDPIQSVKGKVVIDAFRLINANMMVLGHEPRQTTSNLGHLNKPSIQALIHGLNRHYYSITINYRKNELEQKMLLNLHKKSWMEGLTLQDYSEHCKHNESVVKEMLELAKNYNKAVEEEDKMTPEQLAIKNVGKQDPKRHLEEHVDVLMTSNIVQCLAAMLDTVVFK
Chain of 72 kDa type IV collagenase (P08253 whole entry): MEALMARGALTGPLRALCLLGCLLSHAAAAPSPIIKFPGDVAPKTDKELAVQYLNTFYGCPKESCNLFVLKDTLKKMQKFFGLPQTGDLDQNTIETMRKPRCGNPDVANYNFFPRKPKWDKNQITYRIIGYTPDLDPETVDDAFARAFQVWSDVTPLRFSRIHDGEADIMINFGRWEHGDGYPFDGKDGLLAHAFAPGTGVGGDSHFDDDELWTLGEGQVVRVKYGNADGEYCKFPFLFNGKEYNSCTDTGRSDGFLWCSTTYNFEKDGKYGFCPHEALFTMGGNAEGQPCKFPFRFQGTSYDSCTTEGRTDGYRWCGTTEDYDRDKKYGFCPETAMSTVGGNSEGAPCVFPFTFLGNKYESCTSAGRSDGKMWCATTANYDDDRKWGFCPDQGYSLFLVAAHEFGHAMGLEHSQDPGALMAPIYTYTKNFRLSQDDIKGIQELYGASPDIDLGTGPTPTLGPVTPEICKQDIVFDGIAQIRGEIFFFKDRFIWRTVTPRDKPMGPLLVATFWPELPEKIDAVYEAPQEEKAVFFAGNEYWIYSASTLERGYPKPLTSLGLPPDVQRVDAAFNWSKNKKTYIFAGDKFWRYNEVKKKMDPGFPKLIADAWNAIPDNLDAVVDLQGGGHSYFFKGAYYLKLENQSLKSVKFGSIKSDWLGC

CN(C(=O)COC(=O)CNC(=O)C12CC3CC(CC(C3)C1)C2)C1CCS(=O)(=O)C1 (stereo unspecified)
AC50 (Escherichia coli): 27.2 µM (active)

COc1cccc(CC2(CO)CCCN(Cc3ccccc3-c3ccco3)C2)c1 (stereo unspecified)
EC50 [1]: > 92.5 µM (inactive) | EC50 [2]: 2.66 µM (active) | EC50 (Mu-type opioid receptor): > 92.5 µM (inactive) | EC50 [3]: > 92.5 µM (inactive) | EC50 [4]: 1.19 µM (active)

CCOC(=O)N1CCN(C(=O)C2CCCN(c3ncnc4c3nc3n4CCCCC3)C2)CC1 (stereo unspecified)
IC50 [5]: 12.9 µM (active)

O=C1N(c2ccccc2C(F)(F)F)O[C@]1(c1ccccc1)C1CCCCC1
CC50 (Vero): > 25 µM (active)

CN(C)C(CN=C(S)Nc1ccccc1)c1cccnc1 (stereo unspecified)
EC50 [1]: > 92.4 µM (inactive) | EC50 [2]: 0.149 µM (active) | EC50 (Mu-type opioid receptor): > 92.4 µM (inactive) | EC50 [3]: > 92.4 µM (inactive)

COc1ccc2o/c(=N/NC(=O)c3cccs3)c(C(N)=O)cc2c1
IC50 (H9c2): > 79 µM (inactive) | IC50 [6]: 38.5 µM (active) | IC50 [7]: > 100 µM (inactive) | IC50 (Prothrombin): 79.7 µM (active)

O=C(CSCc1ccc([N+](=O)[O-])cc1)N/N=C/c1cccnc1
AC50 [8]: > 380 µM (inactive) | IC50 (Bcl-2-related protein A1): > 20 µM (inactive) | IC50 [9]: 10.9 µM (active) | IC50 [10]: 8.26 µM (active) | EC50 (Protein RecA): > 380 µM (inactive)

Reference: ChEMBL document CHEMBL1201862, “PubChem BioAssay data set” (2004)
